According to patent US4288432A, “Novel enkephalin analogs and process for the preparation thereof” (Richter Gedeon Vegyeszeti Gyar Rt., priority 1979, dated 1981):
Non-standard residues stand in square brackets, D forms with d. Residues, ends and D or L forms follow the SMILES beside them. *: point of attachment. Tyr(Nα-amidino) = N=C(N)N[C@@H](Cc1ccc(O)cc1)C(=O)*; dNle = CCCC[C@@H](N)C(=O)O

Assays:
Assay type in all cases: cell-based
[1] = system: guinea-pig ileum (GPI); test: GPI assay according to Kosterlitz and Watt (opiate activity); details: guinea-pig ileum preparation; assay of Kosterlitz and Watt 1968; relative to normorphine = 1.0
Description: (§1) 39, 398 (1970)] and in mouse ves deferens (MVD) preparations [J. Hughes et al.: Br. J. Pharmacol. 53, 371 (1975)]. […] The figures represent the activities of compounds relative to […] (the activity of normorphine is taken as unity=1.0).
^a GPI assay according to Kosterlitz and Watt [Br.J. Pharmacol. 33,

[2] = system: guinea-pig ileum (GPI); test: GPI assay according to Kosterlitz et al. (opiate activity); details: guinea-pig ileum preparation; assay of Kosterlitz et al. 1970; relative to normorphine = 1.0
Description: as §1
^b GPI assay according to Kosterlitz et al. [Br. J. Pharmacol. 39, 39

[3] = system: mouse vas deferens (MVD); test: MVD assay according to Hughes et al. (opiate activity); details: mouse vas deferens preparation; assay of Hughes et al. 1975; relative to normorphine = 1.0
Description: as §1
^c MVD assay according to Hughes et al. [Br. J. Pharmacol. 53, 371

SMILES | Opiate activity GPI^a (opiate activity of normorphine = 1.0) [1] | Opiate activity GPI^b (opiate activity of normorphine = 1.0) [2] | Opiate activity MVD^c (opiate activity of normorphine = 1.0) [3]
CSCC[C@@H](NC(=O)[C@H](Cc1ccc(O)cc1)NC(=N)N)C(=O)NCC(=O)N[C@@H](Cc1ccccc1)C(N)=O [H2 N-C-(NH)-Tyr-D-Met-Gly-Phe-NH2, amidino-L-tyrosyl-D-methionyl-glycyl-L-phenylalanine amide] | 211 | 79 | 21
CSCC[C@@H](NC(=O)[C@H](Cc1ccc(O)cc1)NC(=N)N)C(=O)NCC(=O)N[C@@H](Cc1ccccc1)C(=O)N1CCC[C@H]1C(N)=O [H2 N-C-(NH)-Tyr-D-Met-Gly-Phe-Pro-NH2, amidino-L-tyrosyl-D-methionyl-glycyl-L-phenylalanyl-L-proline amide] ({Tyr(Nα-amidino)}-[dM]GFP-NH2) | 825 | 173 | 25
CCCC[C@@H](NC(=O)[C@H](Cc1ccc(O)cc1)NC(=N)N)C(=O)NCC(=O)N[C@@H](Cc1ccccc1)C(N)=O [H2 N-C-(NH)-Tyr-D-Nle-Gly-Phe-NH2, amidino-L-tyrosyl-D-norleucyl-glycyl-L-phenylalanine amide] | 126 | 79 | 18
CCCC[C@@H](NC(=O)[C@H](Cc1ccc(O)cc1)NC(=N)N)C(=O)NCC(=O)N[C@@H](Cc1ccccc1)C(=O)N1CCC[C@H]1C(N)=O [H2 N-C-(NH)-Tyr-D-Nle-Gly-Phe-Pro-NH2, amidino-L-tyrosyl-D-norleucyl-glycyl-L-phenylalanyl-L-proline amide] ({Tyr(Nα-amidino)}-[dNle]GFP-NH2) | 79 | 21 | 17
CC(=O)O.CSCC[C@@H](NC(=O)[C@@H](N)Cc1ccc(O)cc1)C(=O)NCC(=O)N[C@@H](Cc1ccccc1)C(N)=O.O [H-Tyr-D-Met-Gly-Phe-NH2, L-Tyrosyl-D-methionyl-glycyl-L-phenylalanine amide acetate hydrate] (H-Y[dM]GF-NH2) | 17 | 17 | 4
CC(=O)O.CSCC[C@@H](NC(=O)[C@@H](N)Cc1ccc(O)cc1)C(=O)NCC(=O)N[C@@H](Cc1ccccc1)C(=O)N1CCC[C@H]1C(N)=O.O.O.O [H-Tyr-D-Met-Gly-Phe-Pro-NH2, L-tyrosyl-D-methionyl-glycyl-L-phenylalanyl-proline amide acetate trihydrate] (H-Y[dM]GFP-NH2) | 8 | 8 | 8
CC(=O)O.CCCC[C@@H](NC(=O)[C@@H](N)Cc1ccc(O)cc1)C(=O)NCC(=O)N[C@@H](Cc1ccccc1)C(N)=O.O [H-Tyr-D-Nle-Gly-Phe-NH2, L-Tyrosyl-D-norleucyl-glycyl-L-phenylalanine amide acetate hydrate] (H-Y[dNle]GF-NH2) | 22 | 22 | 8
CC(=O)O.CCCC[C@@H](NC(=O)[C@@H](N)Cc1ccc(O)cc1)C(=O)NCC(=O)N[C@@H](Cc1ccccc1)C(=O)N1CCC[C@H]1C(N)=O.O [H-Tyr-D-Nle-Gly-Phe-Pro-NH2, L-Tyrosyl-D-norleucyl-glycyl-L-phenylalanyl-L-proline amide acetate hydrate] (H-Y[dNle]GFP-NH2) | 12 | 12 | 10
